Patent US12162877B2, “Human dihydroorotate dehydrogenase (hDHODH) inhibitors and their use in targeting oncological diseases sensitive to pyrimidine starvation” (DRUG DISCOVERY AND CLINIC S.R.L., priority 2018, dated 2024)
≈ marks a conversion by molar mass, not a printed value. Like-named read-outs stand apart in the source and are kept apart here. One block for each molecule: values may come before it.

Legend:
[1] = tested on: THP1; test: CFSE-based cytotoxic activity assay, THP1; format: cell-based; conditions: THP1, 0.01-10 μM, 3 days, FIG. 5A
[2] = tested on: U937; test: Differentiation assay, U937 (CD11b); format: cell-based, human
Experimental: (§1) Cell lines and drug treatment.
(§2) Flow cytometric analysis. The expression of CD11b (PE-conjugated BD Bioscience San Jose, CA, USA), and CD14 (FITC-conjugated Beckam Coulter CA, USA), cell surface molecules was determined by flow cytometry analysis. […] Samples were acquired on a FACS Calibur and dead cells were excluded from the analyses, according to the use of propidium iodide (Sigma-Aldrich, Milan, Italy). Data were processed using Kaluza software version 1.2 (Beckman Coulter Fullerton, CA).
(§3) Differentiation assay. 1×10^4 cells (THP1 and U937), were plated in 96 well round-bottom plates and DHODH inhibitors were added, from 0.1 μM to 10 μM, to a volume of 200 μl of medium. The differentiation kinetics was monitored from day 1 to day 4 for U937, and to day 5 for THP1. Cells were washed and either stained with CD11b (U937), or with CD11b and CD14 (THP1), as described above. The differentiation assay was also performed in the presence of uridine 100 μM and analyzed on day 3

[3] = tested on: PANC-1 (pancreatic cancer cells); test: Cytotoxicity in human cancer cell lines, PANC-1; format: cell-based; conditions: PANC-1, 72 h
From the text: (§4) In the last phase of their study, the present inventors evaluated the effects of our hDHODH inhibitors on a series of human cancer cell lines.

[4] = tested on: HEPG2 (liver hepatocellular cancer cells); test: Cytotoxicity in human cancer cell lines, HEPG2; format: cell-based
From the text: as §4

[5] = Serum stability; format: in vitro ADME; conditions: 37° C.
[6] = tested on: A2780 (ovarian cancer cells); test: Cytotoxicity in human cancer cell lines, A2780; format: cell-based; conditions: A2780, 72 h
From the text: as §4

[7] = tested on: U937; test: CFSE-based cytotoxic activity assay, U937; format: cell-based; conditions: U937, 0.01-10 μM, 3 days, FIG. 5A
[8] = tested on: Jurkat T cells; test: Proliferation assay, Jurkat T cells (Hoechst 33258 DNA content); format: cell-based; conditions: 72 h
[9] = tested on: MDA MB231 (breast cancer cells); test: Cytotoxicity in human cancer cell lines, MDA MB231; format: cell-based; conditions: MDA-MB-231, MDA MB231, 72 h
From the text: as §4

[10] = tested on: PHA-stimulated PBMC; test: Immunosuppression assay, PHA-stimulated PBMC proliferation; format: cell-based
[11] = tested on: THP1; test: Differentiation assay, THP1 (CD14); format: cell-based, human
Experimental: as §1, §2, §3

[12] = Protein binding in vitro (ultrafiltration); format: in vitro ADME; conditions: human serum protein binding
[13] = 24 h, pH 7.4
[14] = tested on: HCT-116 (colon cancer cells); test: Cytotoxicity in human cancer cell lines, HCT-116; format: cell-based; conditions: HCT-116, 72 h
From the text: as §4

[15] = biological target: recombinant hDHODH (Homo sapiens (Human), UniProt Q02127); test: hDHODH inhibition assay (DCIP reduction); format: biochemical
Experimental: Protein expression and purification. […] The vector produces hDHODH as an N-terminal GST-fusion protein. The plasmid pFN2A-hDHODH was transformed into BL21 (DE3), pyrD E. coli cells for protein production. Cells were grown at 37° C. in LB medium supplemented with 0.1 mM flavin mononucleotide. […] Triton X-100 was added to the lysate, to a final concentration of 1%, before centrifugation at 14000×g for 40 min at 4° C. The clarified supernatant was incubated with DNase I (Sigma Aldrich), for 30 min at room temperature, supplemented with 2 mM DTT and filtered through a 0.45 μm syringe filter. The GST-fused enzyme was purified from the bacterial lysate using affinity chromatography on immobilized glutathione-sepharose columns and fast protein liquid chromatography (FPLC). The GST tag was not removed for further studies.
hDHODH inhibition assay. Inhibitory activity was assessed by monitoring the reduction of 2,6-dichloroindophenol (DCIP), which is associated with the oxidation of dihydroorotate as catalyzed by the DHODH enzyme. The enzyme was preincubated for five minutes at 37° C. in Tris-buffer solution (pH 8.0), with coenzyme Q10 (100 μM), with the compounds to be tested used at different concentrations (final DMSO concentration 0.1% v/v), with DCIP (50 μM). The reaction was initiated by the addition of DHO (500 μM), and the reduction was monitored at λ=650 nm. […] Values are means±SE of three independent experiments.

[16] = log D (pH 7.4) shake-flask; format: physicochemical; conditions: n-octanol/PBS
[17] = tested on: PHA-stimulated PBMC; conditions: inhibition of PHA-stimulated PBMC proliferation; value from ref. 29; read-out: Immunosuppression IC50 ± SE; cited from earlier work
[18] = tested on: Jurkat T cells; test: Cytotoxicity assay, Jurkat T cells (CellTox green); format: cell-based; conditions: 72 h, concentration causing significant (≥30%) cytotoxic effect
[19] = with uridine, read-out: Cytotoxicity IC50 with Uridine
[20] = in vitro assay, means ± SE of three experiments, read-out: hDHODH IC50 ± SE
[21] = enzymatic assay, values in text, read-out: hDHODH IC50

Sequence of recombinant hDHODH (Q02127 31-395): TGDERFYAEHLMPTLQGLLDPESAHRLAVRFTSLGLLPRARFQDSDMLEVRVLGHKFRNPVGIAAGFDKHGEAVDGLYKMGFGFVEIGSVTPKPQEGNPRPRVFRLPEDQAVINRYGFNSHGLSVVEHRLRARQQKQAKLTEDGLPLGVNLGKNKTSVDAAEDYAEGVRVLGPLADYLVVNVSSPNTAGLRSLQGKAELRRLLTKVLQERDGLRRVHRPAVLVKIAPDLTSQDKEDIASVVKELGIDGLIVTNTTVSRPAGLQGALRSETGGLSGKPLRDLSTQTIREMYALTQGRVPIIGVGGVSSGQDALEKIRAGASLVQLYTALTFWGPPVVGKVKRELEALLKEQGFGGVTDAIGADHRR

Structure (SMILES): Cc1c(-c2ccc(-c3ccccc3F)cc2)nc2ccc(F)cc2c1C(=O)O [Brequinar, brequinar]
- cytotoxicity [1]: strong and concentration-dependent cytotoxicity
- myeloid differentiation, CD11b expression ([2]; U937, FIG. 6A): strong differentiation
- differentiation when uridine is added ([2]; U937, uridine 100 μM, day 3, FIG. 6C): reversed
- IC50 ([3]; read-out: Cytotoxicity IC50): 280 nM
- IC50 [3, 19]: < 100 nM
- IC50 ([4]; HEPG2, 72 h, with uridine, read-out: Cytotoxicity IC50 with Uridine): > 10000 nM
- IC50 ([4]; HepG2, 72 h, read-out: Cytotoxicity IC50): 46 nM
- % compound after 24 h in human serum [5]: 98%
- IC50 ([6]; read-out: Cytotoxicity IC50): < 0.1 µM
- IC50 [6, 19]: 15.5 µM
- cytotoxicity [7]: strong and concentration-dependent cytotoxicity
- IC50 ([8]; in the presence of 100 μM uridine, read-out: Proliferation IC50 ± SE + Uridine): 94.2 ± 2.08 µM
- IC50 ([8]; read-out: Proliferation IC50 ± SE): 0.91 ± 0.07 µM
- IC50 ([9]; read-out: Cytotoxicity IC50): 1300 nM
- IC50 [9, 19]: > 100000 nM
- antiproliferative effect on PHA-activated PBMCs, times greater than teriflunomide [10]: 10 times
- myeloid differentiation, CD14 expression ([11]; THP1, FIG. 6B): strong differentiation
- differentiation when uridine is added ([11]; THP1, uridine 100 μM, day 3, FIG. 6D): reversed
- % bound [12]: 98.83%
- Solubility in PBS with 2% DMSO [13]: 449 µM
- IC50 ([14]; read-out: Cytotoxicity IC50): 97 nM
- IC50 [14, 19]: 3000 nM

- IC50 [15, 20]: 45 ± 13 nM
Structure (SMILES): Cn1nc(O)c(C(=O)Nc2c(F)c(F)c(-c3ccccc3)c(F)c2F)n1 [Compound 2]

- times more potent than teriflunomide (hDHODH) ([15]; enzymatic assay, ratio of IC50): 320 times
Structure (SMILES): O=C(Nc1c(F)c(F)c(-c2ccccc2)c(F)c1F)c1c(O)nn2ccccc12 [Compound 4, 2-Hydroxy-N-(2,3,5,6-tetrafluoro-[1,1′-biphenyl]-4-yl)pyrazolo[1,5-a]pyridine-3-carboxamide]

- IC50 [15, 21]: 4.3 nM
Structure (SMILES): Cc1cccc2c(C(=O)Nc3c(F)c(F)c(-c4ccccc4)c(F)c3F)c(O)nn12 [Compound 5, 2-Hydroxy-7-methyl-N-(2,3,5,6-tetrafluoro-[1,1′-biphenyl]-4-yl)pyrazolo[1,5-a]pyridine-3-carboxamide]

- IC50 [15, 20]: > 5000 nM
Structure (SMILES): Cn1c(=O)c(C(=O)Nc2c(F)c(F)c(-c3ccccc3)c(F)c2F)c2ccccn21 [Compound 7, 1-Methyl-2-oxo-N-(2,3,5,6-tetrafluoro-[1,1′-biphenyl]-4-yl)-1,2-dihydropyrazolo[1,5-a]pyridine-3-carboxamide]

- IC50 [15, 21]: 760 nM
- IC50 [15, 20]: 760 ± 136 nM
Structure (SMILES): O=C(Nc1ccc(Oc2ccccc2)cc1)c1c(O)nn2ccccc12 [Compound 8, 2-Hydroxy-N-(4-phenoxyphenyl)pyrazolo[1,5-a]pyridine-3-carboxamide]

Structure (SMILES): Cc1cc(NC(=O)c2c(O)nn3ccccc23)ccc1Oc1ccccc1 [Compound 9, 2-Hydroxy-N-(3-methyl-4-phenoxyphenyl)pyrazolo[1,5-a]pyridine-3-carboxamide]
- IC50 [15, 20]: 480 ± 31 nM

- IC50 [15, 21]: 43 nM
- IC50 [15, 20]: 43 nM
Structure (SMILES): Cc1cc(Oc2ccccc2)c(C)cc1NC(=O)c1c(O)nn2ccccc12 [Compound 10, N-(2,5-Dimethyl-4-phenoxyphenyl)-2-hydroxypyrazolo[1,5-a]pyridine-3-carboxamide]

- IC50 [15, 21]: 5.9 nM
Structure (SMILES): O=C(Nc1c(F)c(F)c(-c2ccccc2)c(F)c1F)c1c(O)nn2c1CCCC2 [Compound 30, 2-Hydroxy-N-(2,3,5,6-tetrafluoro-[1,1′-biphenyl]-4-yl)-4,5,6,7-tetrahydropyrazolo[1,5-a]pyridine-3-carboxamide]

- logD [16]: > 3
- IC50 [15, 21]: 2 nM
Structure (SMILES): O=C(Nc1c(F)c(F)c(-c2cccc(F)c2)c(F)c1F)c1c(O)nn2ccccc12 [Compound 32, 2-Hydroxy-N-(2,3,3′,5,6-pentafluoro-[1,1′-biphenyl]-4-yl)pyrazolo[1,5-a]pyridine-3-carboxamide]

- logD [16]: > 3
- IC50 [15, 21]: 2.3 nM
Structure (SMILES): O=C(Nc1c(F)c(F)c(-c2cccc(C(F)(F)F)c2)c(F)c1F)c1c(O)nn2ccccc12 [Compound 33, 2-Hydroxy-N-(2,3,5,6-tetrafluoro-3′-(trifluoromethyl)-[1,1′-biphenyl]-4-yl)pyrazolo[1,5-a]pyridine-3-carboxamide]

- Solubility in PBS [13]: 2692 µM (≈ 727 µg/mL)
Structure (SMILES): C/C(O)=C(\C#N)C(=O)Nc1ccc(C(F)(F)F)cc1 [Teriflunomide, teriflunomide]
- IC50 [17]: 54.3 µM
- Cytotoxicity (effect ≥30%) [18]: 53 ± 3 µM
